Assay [1] addresses T1, human mGlu5a receptor (Homo sapiens (Human), UniProt P41594). The experiment in a line: Intracellular Ca2+ mobilization assay (mGlu5 PAM assay). It counts as cell-based. As to conditions: for mGlu5 PAM EC50: HEK-293 cells, human mGlu5a, L-glutamate at EC20; for Activity profile: PAM = positive, NAM = negative allosteric modulator of mGlu5; for EC50 mGlu5 PAM assay: comparison table; for Efficacy: maximal response in % of maximal stimulatory effect of saturating L-glutamate. The procedure:
A monoclonal HEK-293 cell line stably transfected with a cDNA encoding for the human mGlu5a receptor was generated; for the work with mGlu5 Positive Allosteric Modulators (PAMs), a cell line with low receptor expression levels and low constitutive receptor activity was selected to allow the differentiation of agonistic versus PAM activity. Cells were cultured according to standard protocols (Freshney, 2000) in Dulbecco's Modified Eagle Medium with high glucose supplemented with 1 mM glutamine, 10% (vol/vol) heat-inactivated bovine calf serum, Penicillin/Streptomycin, 50 μg/ml hygromycin and 15 μg/ml blasticidin (all cell culture reagents and antibiotics from Invitrogen, Basel, Switzerland).
About 24 hrs before an experiment, 5×10^4 cells/well were seeded in poly-D-lysine coated, black/clear-bottomed 96-well plates. The cells were loaded with 2.5 μM Fluo-4AM in loading buffer (1×HBSS, 20 mM HEPES) for 1 hr at 37° C. and washed five times with loading buffer. The cells were transferred into a Functional Drug Screening System 7000 (Hamamatsu, Paris, France), and 11 half logarithmic serial dilutions of test compound at 37° C. were added and the cells were incubated for 10-30 min. with on-line recording of fluorescence. Following this pre-incubation step, the agonist L-glutamate was added to the cells at a concentration corresponding to EC20 (typically around 80 μM) with on-line recording of fluorescence; in order to account for day-to-day variations in the responsiveness of cells, the EC20 of glutamate was determined immediately ahead of each experiment by recording of a full dose-response curve of glutamate.
Responses were measured as peak increase in fluorescence minus basal (i.e. fluorescence without addition of L-glutamate), normalized to the maximal stimulatory effect obtained with saturating concentrations of L-glutamate. Graphs were plotted with the % maximal stimulatory using XLfit, a curve fitting program that iteratively plots the data using Levenburg Marquardt algorithm. The single site competition analysis equation used was y=A+((B−A)/(1+((x/C)D))), where y is the % maximal stimulatory effect, A is the minimum y, B is the maximum y, C is the EC50, x is the log 10 of the concentration of the competing compound and D is the slope of the curve (the Hill Coefficient). From these curves the EC50 (concentration at which half maximal stimulation was achieved), the Hill coefficient as well as the maximal response in % of the maximal stimulatory effect obtained with saturating concentrations of L-glutamate were calculated.
A depression of the signal observed after addition of the EC20 concentration of L-glutamate was indicative of an inhibitory activity of the test compound.
In general terms: Calcium assays in cells follow changes in intracellular calcium, usually with a dye or a luminescent sensor.

The target of assay [2] is T1, human mGlu5a receptor. The experiment in a line: MPEP binding assay ([3H]MPEP displacement). As to conditions: for EC50: [3H]MPEP 2 nM, EBNA cell membranes, 1 h at 4° C., read-out: mGlu5-MPEP binding EC50; for Ki: comparison table. How it is done:
For binding experiments, cDNA encoding human mGlu 5a receptor was transiently transfected into EBNA cells using a procedure described by Schlaeger and Christensen [Cytotechnology 15:1-13 (1998)]. Cell membrane homogenates were stored at −80° C. until the day of assay where upon they were thawed and resuspended and polytronised in 15 mM Tris-HCl, 120 mM NaCl, 100 mM KCl, 25 mM CaCl2, 25 mM MgCl2 binding buffer at pH 7.4 to a final assay concentration of 20 μg protein/well.
Saturation isotherms were determined by addition of twelve [^3H]MPEP concentrations (0.04-100 nM) to these membranes (in a total volume of 200 μl) for 1 h at 4° C. Competition experiments were performed with a fixed concentration of [^3H]MPEP (2 nM) and IC50 values of test compounds evaluated using 11 concentrations (0.3-10,000 nM). Incubations were performed for 1 h at 4° C.
At the end of the incubation, membranes were filtered onto unifilter (96-well white microplate with bonded GF/C filter preincubated 1 h in 0.1% PEI in wash buffer, Packard BioScience, Meriden, Conn.) with a Filtermate 96 harvester (Packard BioScience) and washed 3 times with cold 50 mM Tris-HCl, pH 7.4 buffer. Nonspecific binding was measured in the presence of 10 μM MPEP. The radioactivity on the filter was counted (3 min) on a Packard Top-count microplate scintillation counter with quenching correction after addition of 45 μl of microscint 40 (Canberra Packard S. A., Zürich, Switzerland) and shaking for 20 min.

Molecules are shown by their SMILES.

Six compounds from patent US9359301B2, “Ethynyl derivatives” (Hoffmann-La Roche Inc., priority 2012, dated 2016) can be followed below.

T1 sequence (P41594 other isoform, or with tags, fused parts or gaps): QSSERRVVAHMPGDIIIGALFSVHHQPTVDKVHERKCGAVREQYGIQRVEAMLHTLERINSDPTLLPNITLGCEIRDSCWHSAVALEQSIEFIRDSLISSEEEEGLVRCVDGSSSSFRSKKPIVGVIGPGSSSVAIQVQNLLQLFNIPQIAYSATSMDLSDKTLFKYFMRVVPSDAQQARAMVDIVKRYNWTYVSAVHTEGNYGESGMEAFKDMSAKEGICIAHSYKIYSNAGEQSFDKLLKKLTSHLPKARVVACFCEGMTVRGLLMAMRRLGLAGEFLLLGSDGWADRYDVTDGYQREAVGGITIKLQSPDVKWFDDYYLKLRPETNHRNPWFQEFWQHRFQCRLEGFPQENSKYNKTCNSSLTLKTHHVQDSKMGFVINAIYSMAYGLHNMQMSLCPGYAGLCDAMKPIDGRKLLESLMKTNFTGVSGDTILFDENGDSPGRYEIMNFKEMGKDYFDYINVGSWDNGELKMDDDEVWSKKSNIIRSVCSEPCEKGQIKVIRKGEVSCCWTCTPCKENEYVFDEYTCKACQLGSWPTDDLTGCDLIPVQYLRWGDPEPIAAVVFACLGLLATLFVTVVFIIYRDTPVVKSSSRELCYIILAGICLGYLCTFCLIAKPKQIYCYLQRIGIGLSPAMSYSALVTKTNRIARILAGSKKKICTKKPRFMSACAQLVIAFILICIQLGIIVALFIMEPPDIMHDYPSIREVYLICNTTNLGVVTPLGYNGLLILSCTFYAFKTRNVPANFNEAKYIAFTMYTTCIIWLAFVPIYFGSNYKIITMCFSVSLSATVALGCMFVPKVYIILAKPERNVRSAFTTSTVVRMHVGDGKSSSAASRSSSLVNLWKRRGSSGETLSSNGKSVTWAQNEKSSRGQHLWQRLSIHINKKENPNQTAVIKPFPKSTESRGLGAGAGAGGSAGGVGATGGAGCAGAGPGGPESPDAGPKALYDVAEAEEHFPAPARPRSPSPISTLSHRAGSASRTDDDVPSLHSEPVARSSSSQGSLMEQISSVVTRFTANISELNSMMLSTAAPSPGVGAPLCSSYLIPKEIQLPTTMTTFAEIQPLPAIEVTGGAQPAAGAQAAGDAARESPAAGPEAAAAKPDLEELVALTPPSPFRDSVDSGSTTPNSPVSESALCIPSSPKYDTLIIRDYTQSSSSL

What is called EC50 is the midpoint of the concentration-response curve. As a reminder, the Ki is a dissociation constant, usually derived from enzyme kinetics or from competition with a known ligand. Consider `CCN(C(=O)c1ncc(C#Cc2cccc(Cl)c2)cn1)C(C)(C)C` [Example 4, 5-(3-Chloro-phenylethynyl)-pyrimidine-2-carboxylic acid tert-butyl-ethyl-amide], for which, in assay [1], the “mGlu5 PAM EC50” value is “in- active”, the Activity profile result was “NAM” and the “EC50 mGlu5 PAM assay” value is “inactive”. Moreover, in assay [2], the EC50 was 46 nM and the Ki stood at 46 nM.
For the compound `CCN(C(=O)c1ccc(C#Cc2cccc(Cl)c2)cn1)C(C)(C)C` [Example 2, 5-(3-Chloro-phenylethynyl)-pyridine-2-carboxylic acid tert-butyl-ethyl-amide], in assay [1], the “mGlu5 PAM EC50” value is “in- active”, the Activity profile entry is reported as “NAM” and the “EC50 mGlu5 PAM assay” value was “inactive”. In assay [2], the EC50 is 24 nM and the Ki turned out to be 24 nM.
Take `CN(C(=O)c1ncc(C#Cc2cccc(F)c2)cn1)C(C)(C)C` [Reference compound 2, reference compound]: in assay [1], the Activity profile entry is on record as “PAM” and the Efficacy was 55%. For the same compound, in assay [2], the EC50 turned out to be 51 nM and the Ki amounted to 51 nM.
Turning to `CN(C(=O)c1ccc(C#Cc2cccc(F)c2)cn1)C(C)(C)C` [Reference compound 1, reference compound], in assay [1], the Activity profile result is reported as “PAM” and the Efficacy was 64%. In addition, the EC50 in assay [2] came out at 29 nM.
For `CCN(C(=O)c1ncc(C#Cc2cccc(F)c2)cn1)C(C)(C)C` [Example 3, 5-(3-Fluoro-phenylethynyl)-pyrimidine-2-carboxylic acid tert-butyl-ethyl-amide], in assay [1], the “mGlu5 PAM EC50” value is given as “in- active”, the Activity profile entry was “NAM” and the “EC50 mGlu5 PAM assay” value is “inactive”. In assay [2], the EC50 amounted to 94 nM and the Ki stood at 94 nM.
On to `CCN(C(=O)c1ccc(C#Cc2cccc(F)c2)cn1)C(C)(C)C` [Example 1, 5-(3-Fluoro-phenylethynyl)-pyridine-2-carboxylic acid tert-butyl-ethyl-amide], for which, in assay [1], the “mGlu5 PAM EC50” value was “in- active”, the Activity profile result is on record as “NAM” and the “EC50 mGlu5 PAM assay” value is “inactive”. In assay [2], the EC50 is 42 nM and the Ki was found to be 42 nM.
